Reference: US11008293B2, “5-carboxamide-2-thiobarbituric acids and use thereof as medicaments” (FONDAZIONE ISTITUTO ITALIANO DI TECNOLOGIA, priority 2017, dated 2021)

Assays:
Type in all cases: cell-based
HeLa = assay: Antiproliferative activity on HeLa cancer cells; details: Homo sapiens
MCF7 = assay: Antiproliferative activity on MCF7 cancer cells; details: Homo sapiens
A549 = assay: Antiproliferative activity on A549 cancer cells; details: Homo sapiens
DU145 = assay: Antiproliferative activity on DU145 cancer cells; details: Homo sapiens, DU-145

Row | SMILES | IC50 (HeLa) | IC50 (MCF7) | IC50 (A549) | IC50 (DU145)
1 | COc1cc(NC(=O)c2c(O)n(-c3ccccc3)c(=S)n(-c3ccccc3)c2=O)cc(OC)c1O | 18.1 ± 0.8 µM | 53.5 ± 1.9 µM | 17.5 ± 1.1 µM | 26.7 ± 0.1 µM
2 | O=C(Nc1ccc(O)cc1)c1c(O)n(-c2ccccc2)c(=S)n(-c2ccccc2)c1=O | 42.9 ± 6.1 µM | 66.1 ± 7.5 µM | 37.1 ± 3.7 µM | 42.5 ± 7.7 µM
3 | COc1cccc(NC(=O)c2c(O)n(-c3ccccc3)c(=S)n(-c3ccccc3)c2=O)c1 | 8.5 ± 0.5 µM | 14 ± 0.9 µM | 6.9 ± 0.2 µM | 12.5 ± 1.5 µM
4 | O=C(Nc1cccc(O)c1)c1c(O)n(-c2ccccc2)c(=S)n(-c2ccccc2)c1=O | 39.1 ± 0.7 µM | 94.2 ± 3.1 µM | 59.4 ± 6.1 µM | 49.6 ± 2.7 µM
